Laboratory results from patent US12325696B2, “Indazole derivative, preparation method therefor, and pharmaceutical application thereof” (JIANGSU HENGRUI MEDICINE CO., LTD., priority 2019, dated 2025).

Tests used:
Assay type in all cases: cell-based
MCF7 cell = test: Inhibition of proliferation of MCF7 cell (CellTiter-Glo, 144 hours); settings: Homo sapiens; for IC50: MCF7, CellTiter-Glo, read-out: IC50 of the inhibitory effect on the proliferation of MCF7 cell; for Emax: MCF7 cell proliferation, read-out: Maximum inhibition
Procedure: (§1) MCF7 cells (ATCC, HTB-22) were cultured in MEM (GE Healthcare, SH30024.01) complete medium containing 10% fetal bovine serum. On the first day of the experiment, MCF7 cells were seeded in a 96-well plate with the complete medium at a density of 3,000 cells/well (100 μl of cell suspension per well), and the plate was incubated in a cell incubator at 37° C. and 5% CO2 overnight. On the second day, the medium in each well was replaced with 135 μl of MEM incomplete medium containing 2% fetal bovine serum. 15 μl of test compound solution of different concentrations formulated with the incomplete medium was added to each well, wherein the final concentrations of the compound were nine concentration points obtained by a 4-fold gradient dilution starting from 100 nM. A blank control containing 0.5% DMSO was set. The plate was incubated in a cell incubator at 37° C. and 5% CO2 for 144 hours. On the eighth day, the 96-well plate was taken out, and 150 μl of CellTiter-Glo® Luminescent Cell Viability Assay (Promega, G7573) was added to each well. The plate was left to stand at room temperature for 10 minutes, and the luminescence signal values were measured using a multi-label microplate reader (PerkinElmer, VICTOR 3). The IC50 values of the inhibitory activity of the compounds were calculated based on the concentrations and luminescence signal values of the compounds using Graphpad Prism software.
A graph of the chemiluminescence signal values versus the logarithmic concentrations of the compound was made using Graghpad Prism to obtain the IC50 values of the compound.

[1] = system: estrogen receptor reporter gene; test: Inhibition of estrogen receptor reporter gene activity (ERE-luc luciferase) in MCF7/ERE-luc cells; settings: Homo sapiens, 0.1 nM β-estradiol, 20 hours, read-out: IC50 of inhibitory activity on the activity of the estrogen receptor reporter gene
Procedure: MCF7 cells MCF7/ERE-luc (ATCC, HTB-22) expressing the luciferase reporter gene ERE-luc (synthesized by GENEWIZ, Inc.) controlled by the estrogen receptor response element were cultured in MEM (GE Healthcare, SH30024.01) medium containing 10% fetal bovine serum and 500 µg/ml G418. On the first day of the experiment, MCF7/ERE-luc cells were seeded in a 96-well plate with incomplete MEM medium containing 10% fetal bovine serum treated with activated charcoal (BioSun, BS-0004-500) at a density of 30,000 cells/well (100 μl of cell suspension per well), and the plate was incubated in a cell incubator at 37° C. and 5% CO2 overnight. On the second day, 10 μl of β-estradiol (SIGMA, E2758-250MG) solution formulated with the above incomplete medium or test compound solution of different concentrations formulated with the above incomplete medium was added to each well, wherein the final concentration of β-estradiol was 0.1 nM, and the final concentrations of the compound were nine concentration points obtained by a 10-fold gradient dilution starting from 10 μM, a blank control containing 0.5% DMSO was set, and the plate was incubated in a cell incubator at 37° C. and 5% CO2 for 20 hours. On the third day, the 96-well plate was taken out, and 100 μl of ONE-Glo™ Luciferase Assay system (Promega, E6110) was added to each well to determine the activity of luciferase. The plate was left to stand at room temperature for 3 minutes until the cells were fully lysed, and the luminescence signal values were measured using a multi-label microplate reader (PerkinElmer, VICTOR 3). The IC50 values of the inhibitory activity of the compounds were calculated using Graphpad Prism software based on the concentrations and luminescence signal values of the compounds.
The inhibitory effect of the compounds of the present disclosure on the activity of the estrogen receptor reporter gene was determined by the above test. A graph of the chemiluminescence signal values versus the logarithmic concentrations of the compound was made using Graghpad Prism.

MCF7 ERαY537S = test: Inhibition of proliferation of MCF7 cell expressing ERα Y537S mutant; settings: Homo sapiens, 144 hours; for Emax: read-out: Maximum inhibition
Text: (§2) The mutants ERα Y537S and ERα D538G of human estrogen receptor α (ERαs) protein were obtained by site-directed mutagenesis using the cDNA of wild-type ESR1 gene (Accession No. NM000125) as a template according to double-primer PCR. The primer sequences used for mutagenesis are as follows (the nucleotides underlined are the sites of mutagenesis):
(§3) The cDNA of mutant ESR1 was cloned into the target lentiviral vector pCDH-CMV-MCS-EF1-Puro (SBI, CD510B-1). The lentiviral plasmid with the mutant ESR1 gene sequence and the lentiviral packaging plasmids pVSV-G and pCMV-dR8.91 (SBI, LV500A-1) were transfected into HEK-293T cells (ATCC, CRL-3216) by Lipofectamine 3000 Transfection Reagent (ThermoFisher Scientific, Cat #L3000075). 48 hours after the transfection, the supernatant of the virus-containing DMEM high-glycemic medium (GE Healthcare, SH30243.01) containing 10% FBS was filtered, and ultracentrifuged to obtain the virus pellet. The virus pellet was resuspended in an appropriate amount of MEM medium (GE Healthcare, SH30024.01) containing 10% FBS, non-essential amino acids (SIGMA, M7145-100ML) and sodium pyruvate (SIGMA, S8636-100ML), and the resulting suspension was added to MCF7 cells (ATCC, HTB-22). Polybrene (SIGMA, H9268-5G) at a final concentration of 8 µg/ml was added, and the cells were incubated overnight. Two days after the transfection, […] puromycin (invitrogen, A11138-03) was added to the cell culture medium for resistance screening. After about two weeks, the MCF7 cell line capable of stably expressing ERαY537S and ERα D538G mutants was obtained.
as §1, with “MCF7 cells expressing ERα mutant were cultured” for “MCF7 cells (ATCC, HTB-22) were cultured”, “the experiment, the cells were” for “the experiment, MCF7 cells were”, “control containing 0.500 DMSO was” for “control containing 0.5% DMSO was”, “C. and […] for” for “C. and 5% CO2 for”, “and 150 of CellTiter-Glo®” for “and 150 μl of CellTiter-Glo®”

MCF7 D538G = test: Inhibition of proliferation of MCF7 cell expressing ERα D538G mutant; settings: Homo sapiens, 144 hours; for Emax: read-out: Maximum inhibition
Text: as §2, §3
as §1, with “MCF7 cells expressing ERα mutant were cultured” for “MCF7 cells (ATCC, HTB-22) were cultured”, “the experiment, the cells were” for “the experiment, MCF7 cells were”, “control containing 0.500 DMSO was” for “control containing 0.5% DMSO was”, “C. and […] for” for “C. and 5% CO2 for”, “and 150 of CellTiter-Glo®” for “and 150 μl of CellTiter-Glo®”

Row | SMILES | IC50 (MCF7 cell) [nM] | Emax (MCF7 cell) [%] | IC50 [1] [nM] | IC50 (MCF7 ERαY537S) [nM] | Emax (MCF7 ERαY537S) [%] | IC50 (MCF7 D538G) [nM] | Emax (MCF7 D538G) [%]
1 | O=C(/C=C/CNC1(COc2ccc(/C(=C(/CC(F)(F)F)c3ccccc3)c3ccc4[nH]nc(F)c4c3)cn2)CC1)N1CCCCC1 [Example 3, (E)-1-(Piperidin-1-yl)-4-((1-(((5-((Z)-4,4,4-trifluoro-1-(3-fluoro-1H-indazol-5-yl)-2-phenylbut-1-en-1-yl)pyridin-2-yl)oxy)methyl)cyclopropyl)amino)but-2-en-1-one] | 2 | 101 | 4 | 9 | 93 | 9 | 96
2 | O=C(/C=C/CNC1(COc2ccc(/C(=C(/CC(F)(F)F)c3ccccc3)c3ccc4[nH]nc(F)c4c3)cn2)CC1)N1CCNCC1 [Example 4, (E)-1-(Piperazin-1-yl)-4-((1-(((5-((Z)-4,4,4-trifluoro-1-(3-fluoro-1H-indazol-5-yl)-2-phenylbut-1-en-1-yl)pyridin-2-yl)oxy)methyl)cyclopropyl)amino)but-2-en-1-one] | 1.5 | 113 | 4 | 11 | 101 | 10 | 105
3 | CN(C)C(=O)/C=C/CN(C)C1(COc2ccc(/C(=C(/CC(F)(F)F)c3ccccc3)c3ccc4[nH]nc(F)c4c3)cn2)CC1 [Example 5, (E)-N,N-Dimethyl-4-(methyl(1-(((5-((Z)-4,4,4-trifluoro-1-(3-fluoro-1H-indazol-5-yl)-2-phenylbut-1-en-1-yl)pyridin-2-yl)oxy)methyl)cyclopropyl)amino)but-2-enamide] | 0.1 | 96 | 3 | 0.3 | 107 | 0.2 | 98
4 | CCN(C/C=C/C(=O)N(C)C)C1(COc2ccc(/C(=C(/CC(F)(F)F)c3ccccc3)c3ccc4[nH]nc(F)c4c3)cn2)CC1 [Example 6, (E)-4-(Ethyl(1-(((5-((Z)-4,4,4-trifluoro-1-(3-fluoro-1H-indazol-5-yl)-2-phenylbut-1-en-1-yl)pyridin-2-yl)oxy)methyl)cyclopropyl)amino)-N,N-dimethylbut-2-enamide] | 0.15 | 94 | 0.5 | 1 | 102 | 0.5 | 98
5 | CN(C)C(=O)/C=C/CNC1(COc2ccc(/C(=C(/CC(F)(F)F)c3ccccc3)c3ccc4[nH]nc(F)c4c3)cn2)CCCC1 [Example 7, (E)-N,N-Dimethyl-4-((1-(((5-((Z)-4,4,4-trifluoro-1-(3-fluoro-1H-indazol-5-yl)-2-phenylbut-1-en-1-yl)pyridin-2-yl)oxy)methyl)cyclopentyl)amino)but-2-enamide] | 2 | 102 | 38 | 12 | 88 | 12 | 84
6 | CN(C)C(=O)/C=C/CN1CCC(Oc2ccc(/C(=C(/CC(F)(F)F)c3ccccc3)c3ccc4[nH]nc(F)c4c3)cn2)CC1 [Example 9, (E)-N,N-Dimethyl-4-(4-((5-((Z)-4,4,4-trifluoro-1-(3-fluoro-1H-indazol-5-yl)-2-phenylbut-1-en-1-yl)pyridin-2-yl)oxy)piperidin-1-yl)but-2-enamide] | 0.1 | 110 | 2 | 2 | 94 | 0.8 | 108
7 | CNC(=O)c1ccc(/C(CC(F)(F)F)=C(\c2ccc(O[C@@H]3CCCN(C/C=C/C(=O)N(C)C)C3)nc2)c2ccc3[nH]nc(F)c3c2)cc1 [Example 21, 4-((Z)-1-(6-(((R)-1-((E)-4-(Dimethylamino)-4-oxobut-2-en-1-yl)piperidin-3-yl)oxy)pyridin-3-yl)-4,4,4-trifluoro-1-(3-fluoro-1H-indazol-5-yl)but-1-en-2-yl)-N-methylbenzamide] | 45 | 90 | – | – | – | – | –
8 | CN(C)C(=O)/C=C/CN1CCC[C@H](Oc2ccc(/C(=C(/CC(F)(F)F)c3ccccc3)c3ccc4[nH]nc(F)c4c3)cn2)C1 [Example 27, (E)-N,N-Dimethyl-4-((S)-3-((5-((Z)-4,4,4-trifluoro-1-(3-fluoro-1H-indazol-5-yl)-2-phenylbut-1-en-1-yl)pyridin-2-yl)oxy)piperidin-1-yl)but-2-enamide] | 0.3 | 86 | 7 | – | – | – | –
9 | C=CC(=O)N1CCC(Oc2ccc(/C(=C(/CC(F)(F)F)c3ccccc3)c3ccc4[nH]nc(F)c4c3)cn2)CC1 [Example 28, (Z)-1-(4-((5-(4,4,4-Trifluoro-1-(3-fluoro-1H-indazol-5-yl)-2-phenylbut-1-en-1-yl)pyridin-2-yl)oxy)piperidin-1-yl)prop-2-en-1-one] | 0.1 | 90 | 4 | – | – | – | –
10 | CN(C)C(=O)/C=C/CN1CC[C@H](Oc2ccc(/C(=C(/CC(F)(F)F)c3ccccc3)c3ccc4[nH]nc(F)c4c3)cn2)C1 [Example 30, (E)-N,N-Dimethyl-4-((S)-3-((5-((Z)-4,4,4-trifluoro-1-(3-fluoro-1H-indazol-5-yl)-2-phenylbut-1-en-1-yl)pyridin-2-yl)oxy)pyrrolidin-1-yl)but-2-enamide] | 0.2 | 93 | 3 | – | – | – | –
